pIC50: −log10 of the molar value.
Experiments:
DGKα = target: T1, DGKα (Homo sapiens, UniProt P23743); assay: In vitro DGKα inhibition assay (ADP-Glo); format: biochemical; conditions: His-tagged human recombinant enzyme, 0.1 nM DGKα, 50 μM ATP, 20 μM DLG, 90 minute incubation
T1 construct: His; purchased Signal Chem D21-10BH
Method: (§1) The DGKα and DGKζ biochemical reactions were performed using His-tagged human recombinant enzymes (Signal Chem, DGKα, #D21-10BH; DGKζ, #D30-10H)) and DLG (Dilauroyl-sn-glycerol) lipid substrate (Signal Chem, #D430-59). ADP-Glo assay was performed using ADP-Glo™ kinase Assay kit (Promega, #V9104). The reactions were carried out in assay buffer containing 40 mM Tris, pH 7.5, 0.1% CHAPS, 0.1% Prionex, 40 mM NaCl, 5 mM MgCl2, 1 mM CaCl2, and 1 mM DTT. DGKα reactions contained 0.1 nM DGKα, 50 μM ATP, and 20 μM DLG. And DGKζ reactions contained 0.4 nM DGKζ, 30 μM ATP, and 20 μM DLG.
(§2) For compound inhibition studies, 40 nL test compound in DMSO was added to wells of white polystyrene plates in 384-well (Greiner, #784075) or 1536-well format (Greiner, #782075). Compounds were added with top concentration of 2 mM with 11 point, 3-fold dilution series. Enzyme solution (contains 2×DGK enzyme concentration in 1× assay buffer) was added to the plate in 2 μL/well volume, followed by 2 μL/well of substrate solution (contains 2× concentration of ATP and DLG substrate in 1× assay buffer). Plates were then centrifuged for 1 min at 1200 RPM and sealed or lidded. For 4 μL reaction volume, test compounds were therefore diluted 100× to final top concentration of […]. After 90 minute incubation, reactions were quenched by addition of 2 μL/well Promega ADP-Glo Reagent, followed by centrifugation and lidding. After 60 min incubation, 2 μL/well Promega Kinase Detection Reagent was added, plates centrifuged, and incubated for 30 min. Plates were then read using Luminescence method on BMG PHERAstar FSX plate reader. Percent inhibition was calculated and IC50s were determined using 4-parameter fit in Genedata Screener. Labcyte Echo acoustic dispenser was used for compound addition, and Formulatrix Tempest liquid handler was used for all reagent dispenses. The compounds of the disclosure were tested in one or more of the assays described above, and the resulting data are shown in Table A.

DGKζ = target: T2, DGKζ (Homo sapiens, UniProt Q13574); assay: In vitro DGKζ inhibition assay (ADP-Glo); format: biochemical; conditions: His-tagged human recombinant enzyme, 0.4 nM DGKζ, 30 μM ATP, 20 μM DLG, 90 minute incubation
T2 construct: His; purchased Signal Chem D30-10H
Method: as §1, §2

T1 sequence (P23743 whole entry): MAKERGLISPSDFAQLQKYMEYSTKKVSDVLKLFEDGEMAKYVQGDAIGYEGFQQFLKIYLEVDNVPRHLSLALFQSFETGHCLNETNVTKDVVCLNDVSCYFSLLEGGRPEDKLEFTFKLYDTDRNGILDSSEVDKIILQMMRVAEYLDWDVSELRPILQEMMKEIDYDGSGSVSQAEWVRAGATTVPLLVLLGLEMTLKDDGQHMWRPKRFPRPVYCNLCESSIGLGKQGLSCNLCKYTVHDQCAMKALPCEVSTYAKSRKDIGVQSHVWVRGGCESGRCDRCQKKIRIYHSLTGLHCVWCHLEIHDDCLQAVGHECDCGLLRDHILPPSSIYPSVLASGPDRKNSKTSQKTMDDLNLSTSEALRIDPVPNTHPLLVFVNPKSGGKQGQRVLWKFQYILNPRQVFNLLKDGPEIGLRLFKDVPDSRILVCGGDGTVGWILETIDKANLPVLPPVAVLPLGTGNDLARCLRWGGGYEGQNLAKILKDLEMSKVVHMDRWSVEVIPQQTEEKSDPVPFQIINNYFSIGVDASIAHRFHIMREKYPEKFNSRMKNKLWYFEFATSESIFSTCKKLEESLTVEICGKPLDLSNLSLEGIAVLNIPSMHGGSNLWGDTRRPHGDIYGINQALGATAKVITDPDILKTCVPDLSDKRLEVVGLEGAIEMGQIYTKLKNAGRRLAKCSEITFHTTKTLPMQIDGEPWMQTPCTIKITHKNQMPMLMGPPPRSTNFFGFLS
T2 sequence (Q13574 whole entry): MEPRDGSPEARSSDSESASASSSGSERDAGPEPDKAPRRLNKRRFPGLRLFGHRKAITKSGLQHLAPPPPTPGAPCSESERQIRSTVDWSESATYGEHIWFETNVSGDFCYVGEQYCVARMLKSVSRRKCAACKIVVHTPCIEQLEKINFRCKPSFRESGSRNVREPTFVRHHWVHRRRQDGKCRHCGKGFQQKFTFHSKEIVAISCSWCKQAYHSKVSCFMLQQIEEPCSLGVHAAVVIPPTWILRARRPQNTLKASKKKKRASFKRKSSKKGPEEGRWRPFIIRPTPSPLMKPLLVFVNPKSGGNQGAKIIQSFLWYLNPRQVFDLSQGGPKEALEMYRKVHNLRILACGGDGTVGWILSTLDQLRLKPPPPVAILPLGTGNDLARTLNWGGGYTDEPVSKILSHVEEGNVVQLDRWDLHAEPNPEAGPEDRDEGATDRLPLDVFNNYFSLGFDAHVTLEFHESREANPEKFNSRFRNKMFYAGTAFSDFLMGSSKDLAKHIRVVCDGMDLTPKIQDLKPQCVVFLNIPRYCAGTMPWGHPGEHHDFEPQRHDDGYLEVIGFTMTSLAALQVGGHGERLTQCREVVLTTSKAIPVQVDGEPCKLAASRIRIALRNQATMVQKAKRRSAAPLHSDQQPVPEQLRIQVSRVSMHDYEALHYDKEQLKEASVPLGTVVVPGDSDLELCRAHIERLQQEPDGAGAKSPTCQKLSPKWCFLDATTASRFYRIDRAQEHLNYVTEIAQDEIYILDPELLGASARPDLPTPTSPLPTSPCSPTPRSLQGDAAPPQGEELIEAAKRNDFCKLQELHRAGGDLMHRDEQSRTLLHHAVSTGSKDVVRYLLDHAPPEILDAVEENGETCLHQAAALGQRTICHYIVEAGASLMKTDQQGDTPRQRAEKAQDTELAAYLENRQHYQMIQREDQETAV

Row | SMILES | pIC50 (DGKα) | pIC50 (DGKζ)
1 | F/C(=C\c1ccc(Oc2cccc(F)c2F)c(Cl)c1N1CCCC2(CCN(CC3CC3)CC2)C1)c1ccn(-c2ccnnc2)n1 [Example 22, (Z)-2-(2-Chloro-3-(2,3-difluorophenoxy)-6-(2-fluoro-2-(1-(pyridazin-4-yl)-1H-pyrazol-3-yl)vinyl)phenyl)-9-(cyclopropylmethyl)-2,9-diazaspiro[5.5]undecane] | ≥ 7.70 | 6.70 to 7.70
2 | OCCN1CCC2(CCCN(c3c(/C=C(\F)c4csc(-c5ccnnc5)n4)ccc(Oc4ccccc4)c3C(F)(F)F)C2)CC1 [Example 23, (Z)-2-(2-(6-(2-Fluoro-2-(2-(pyridazin-4-yl)thiazol-4-yl)vinyl)-3-phenoxy-2-(trifluoromethyl)phenyl)-2,9-diazaspiro[5.5]undecan-9-yl)ethan-1-ol] | 6.70 to 7.70 | ≥ 7.70
3 | CCN1CCC2(CCCN(c3c(/C=C(\F)c4ccn(-c5ccnnc5)n4)ccc(Oc4ccccc4)c3C(F)(F)F)C2)CC1 [Example 24, (Z)-9-Ethyl-2-(6-(2-fluoro-2-(1-(pyridazin-4-yl)-1H-pyrazol-3-yl)vinyl)-3-phenoxy-2-(trifluoromethyl)phenyl)-2,9-diazaspiro[5.5]undecane] | 6.70 to 7.70 | ≥ 7.70

Source: US20240270739A1, “Heteroaryl Fluoroalkenes As DGK Inhibitors” (Incyte Corporation, priority 2023, published 2024)
